Assay results as given in PMC4262413, “Importance of Tryptophan in Transforming an Amphipathic Peptide into a Pseudomonas aeruginosa-Targeted Antimicrobial Peptide” (PLoS ONE, 2014).
In brackets after ≈: the same amount, converted by molar mass. Where two headings read alike, the source gives them in different places. Each block holds one molecule with its values, some of them ahead of it. Residues, ends and D or L forms follow the SMILES beside them.

What was measured:
Assay in all cases: microbe, parasite or virus in culture
[1] = test system: S. aureus 29213; assay type: cell-based, Staphylococcus aureus
Procedure: (§1) Minimal inhibitory concentration (MIC) assays were performed as described previously. Briefly, after incubation overnight in Mueller-Hinton (MH) broth at 37°C, the bacteria were grown to exponential growth phase and diluted to approximately 1×10^5 CFU/ml. The peptides were dissolved in 0.2% bovine serum albumin (BSA) containing 0.01% (v/v) acetic acid, and they were then added to each well of a 96-well plates at a final concentration ranging from 0.25 to 128 µM. Each well contained a total volume of 100 µL (50 µL of inoculums and 50 µL of peptide-containing solution). The MICs were determined as the lowest concentration of peptide that prevented visible turbidity by visual inspection after incubation at 37°C for 16–18 h. Independent experiments were carried out at least three times. Uninoculated MH broth was used as a negative control and cultures without added peptides served as the positive control. Minimal bactericidal concentration (MBC) assay was performed following MIC assay. At the end of MIC assay 10 µL aliquots of the medium were taken from peptide-containing wells with no visible bacterial growth. These are plated on MH agar, incubated for 18 h to allow colony growth. The MBC was defined as the lowest peptide concentration resulting in no bacterial growth in the media. Each assay was performed at least three times.

[2] = test system: P. auruginosa 21630; assay type: cell-based, Pseudomonas aeruginosa
Procedure: as §1

[3] = test system: P. auruginosa LC; assay type: cell-based, Pseudomonas aeruginosa
Procedure: as §1

[4] = test system: P. auruginosa 10419; assay type: cell-based, Pseudomonas aeruginosa
Procedure: as §1

[5] = test system: P. aeruginosa 27853; assay type: cell-based, Pseudomonas aeruginosa
Procedure: as §1

[6] = test system: P. auruginosa 21625; assay type: cell-based, Pseudomonas aeruginosa
Procedure: as §1

[7] = test system: S. typhimurium 7731; assay type: cell-based, Salmonella typhimurium
Procedure: as §1

[8] = test system: S. epidermidis 12228; assay type: cell-based, Staphyfococcus epidermidis
Procedure: as §1

[9] = test system: E. coli 25922; assay type: cell-based, Escherichia coli
Procedure: as §1

[10] = test system: P. auruginosa LCGE (gentamincin-resistant strain)
Procedure: as §1
(§2) The antimicrobial activity of the RI16 and mutant peptides against Gram-negative and Gram-positive bacteria were determined.

[11] = test system: P. auruginosa LCCE (ceftazidime-resistant strain)
Procedure: as §1, §2

[12] = test system: P. auruginosa LCCI (ciprofloxacin-resistant strain)
Procedure: as §1, §2

- MIC [1]; 29213: 256 µM (≈ 562 µg/mL)
- MIC [2]: 256 µM (≈ 562 µg/mL)
- MIC [3]: 64 µM (≈ 140 µg/mL)
- MIC [4]: 256 µM (≈ 562 µg/mL)
- MIC [5]; 27853: 256 µM (≈ 562 µg/mL)
- MIC [6]: 256 µM (≈ 562 µg/mL)
- MIC [7]; 7731: 256 µM (≈ 562 µg/mL)
- MIC [8]; 12228: 32 µM (≈ 70.2 µg/mL)
- MIC [9]; 25922: 128 µM (≈ 281 µg/mL)
- MIC [10]: 256 µM (≈ 562 µg/mL)
- MIC [11]: 256 µM (≈ 562 µg/mL)
- MIC [12]: 256 µM (≈ 562 µg/mL)
SMILES: CC[C@H](C)[C@H](NC(=O)[C@H](CCCCN)NC(=O)[C@H](CCCCN)NC(=O)[C@H](CC(C)C)NC(=O)[C@H](CCCNC(=N)N)NC(=O)[C@H](CCCCN)NC(=O)[C@H](CCCNC(=N)N)NC(=O)[C@@H](NC(=O)[C@H](CCCCN)NC(=O)[C@H](CCCCN)NC(=O)[C@H](CCCNC(=N)N)NC(=O)[C@H](CC(C)C)NC(=O)[C@H](CCCNC(=N)N)NC(=O)[C@H](CCCNC(=N)N)NC(=O)[C@H](Cc1ccccc1)NC(=O)[C@@H](N)CCCNC(=N)N)[C@@H](C)CC)C(N)=O [T9I] (H-RFRRLRKKIRKRLKKI-NH2)

SMILES: CC(C)(O/N=C(\C(=O)N[C@@H]1C(=O)N2C(C(=O)[O-])=C(C[n+]3ccccc3)CS[C@H]12)c1csc(N)n1)C(=O)O [ceftazidime, reference compound]
- MIC ([11]; Pseudomonas aeruginosa): > 512 µM

SMILES: CC[C@H](C)[C@H](NC(=O)[C@H](CCCCN)NC(=O)[C@H](CCCCN)NC(=O)[C@H](CC(C)C)NC(=O)[C@H](CCCNC(=N)N)NC(=O)[C@H](CCCCN)NC(=O)[C@H](CCCNC(=N)N)NC(=O)[C@H](CCCCN)NC(=O)[C@H](CCCCN)NC(=O)[C@H](CCCCN)NC(=O)[C@H](CCCNC(=N)N)NC(=O)[C@H](CC(C)C)NC(=O)[C@H](CCCNC(=N)N)NC(=O)[C@H](CCCNC(=N)N)NC(=O)[C@H](Cc1ccccc1)NC(=O)[C@@H](N)CCCNC(=N)N)C(N)=O [T9K] (H-RFRRLRKKKRKRLKKI-NH2)
- MIC [1]; 29213: 128 µM (≈ 283 µg/mL)
- MIC [2]: 256 µM (≈ 566 µg/mL)
- MIC [3]: 256 µM (≈ 566 µg/mL)
- MIC [4]: 256 µM (≈ 566 µg/mL)
- MIC [5]; 27853: 128 µM (≈ 283 µg/mL)
- MIC [6]: 256 µM (≈ 566 µg/mL)
- MIC [7]; 7731: 256 µM (≈ 566 µg/mL)
- MIC [8]; 12228: 128 µM (≈ 283 µg/mL)
- MIC [9]; 25922: 128 µM (≈ 283 µg/mL)

SMILES: O=C(O)c1cn(C2CC2)c2cc(N3CCNCC3)c(F)cc2c1=O [ciprofloxacin, reference compound]
- MIC ([12]; Pseudomonas aeruginosa): > 512 µM

SMILES: CC[C@H](C)[C@H](NC(=O)[C@H](CCCCN)NC(=O)[C@H](CCCCN)NC(=O)[C@H](CC(C)C)NC(=O)[C@H](CCCNC(=N)N)NC(=O)[C@H](CCCCN)NC(=O)[C@H](CCCNC(=N)N)NC(=O)[C@@H](NC(=O)[C@H](CCCCN)NC(=O)[C@H](CCCCN)NC(=O)[C@H](CCCNC(=N)N)NC(=O)[C@H](CC(C)C)NC(=O)[C@H](CCCNC(=N)N)NC(=O)[C@H](CCCNC(=N)N)NC(=O)[C@H](Cc1ccccc1)NC(=O)[C@@H](N)CCCNC(=N)N)[C@@H](C)O)C(N)=O [RI16] (H-RFRRLRKKTRKRLKKI-NH2)
- MIC ([1]; S. aureus 29213, MH broth, ~1×10^5 CFU/ml, 37°C, 16–18 h, visible turbidity, at least three independent experiments): 128 µM (≈ 279 µg/mL)
- MIC ([2]; P. auruginosa 21630, MH broth, ~1×10^5 CFU/ml, 37°C, 16–18 h, visible turbidity, at least three independent experiments): 256 µM (≈ 559 µg/mL)
- MIC ([3]; P. auruginosa LC, MH broth, ~1×10^5 CFU/ml, 37°C, 16–18 h, visible turbidity, at least three independent experiments): 32 µM (≈ 69.8 µg/mL)
- MIC ([4]; P. auruginosa 10419, MH broth, ~1×10^5 CFU/ml, 37°C, 16–18 h, visible turbidity, at least three independent experiments): 256 µM (≈ 559 µg/mL)
- MIC ([5]; P. auruginosa 27853, MH broth, ~1×10^5 CFU/ml, 37°C, 16–18 h, visible turbidity, at least three independent experiments): 256 µM (≈ 559 µg/mL)
- MIC ([6]; P. auruginosa 21625, MH broth, ~1×10^5 CFU/ml, 37°C, 16–18 h, visible turbidity, at least three independent experiments): 256 µM (≈ 559 µg/mL)
- MIC ([7]; S. typhimurium 7731, MH broth, ~1×10^5 CFU/ml, 37°C, 16–18 h, visible turbidity, at least three independent experiments): 128 µM (≈ 279 µg/mL)
- MIC ([8]; S. epidermidis 12228, MH broth, ~1×10^5 CFU/ml, 37°C, 16–18 h, visible turbidity, at least three independent experiments): 32 µM (≈ 69.8 µg/mL)
- MIC ([9]; E. coli 25922, MH broth, ~1×10^5 CFU/ml, 37°C, 16–18 h, visible turbidity, at least three independent experiments): 128 µM (≈ 279 µg/mL)
- MIC ([10]; P. auruginosa LCGE, gentamincin-resistant strain, MH broth, ~1×10^5 CFU/ml, 37°C, 16–18 h, visible turbidity): 256 µM (≈ 559 µg/mL)
- MIC ([11]; P. auruginosa LCCE, ceftazidime-resistant strain, MH broth, ~1×10^5 CFU/ml, 37°C, 16–18 h, visible turbidity): 256 µM (≈ 559 µg/mL)
- MIC ([12]; P. auruginosa LCCI, ciprofloxacin-resistant strain, MH broth, ~1×10^5 CFU/ml, 37°C, 16–18 h, visible turbidity): 256 µM (≈ 559 µg/mL)

SMILES: NCC[C@H](O)C(=O)N[C@@H]1C[C@H](N)[C@@H](O[C@H]2O[C@H](CN)[C@@H](O)[C@H](O)[C@H]2O)[C@H](O)[C@H]1O[C@H]1O[C@H](CO)[C@@H](O)[C@H](N)[C@H]1O [Amikacin, reference compound]
- MIC ([1]; Staphylococcus aureus, S. aureus 29213, MH broth, ~1×10^5 CFU/ml, 37°C, 16–18 h, visible turbidity, at least three independent experiments): 1 µM (≈ 0.586 µg/mL)
- MIC ([2]; Pseudomonas aeruginosa, P. auruginosa 21630, MH broth, ~1×10^5 CFU/ml, 37°C, 16–18 h, visible turbidity, at least three independent experiments): 1 µM (≈ 0.586 µg/mL)
- MIC ([3]; Pseudomonas aeruginosa, P. auruginosa LC, MH broth, ~1×10^5 CFU/ml, 37°C, 16–18 h, visible turbidity, at least three independent experiments): 0.25 µM (≈ 0.146 µg/mL)
- MIC ([4]; Pseudomonas aeruginosa, P. auruginosa 10419, MH broth, ~1×10^5 CFU/ml, 37°C, 16–18 h, visible turbidity, at least three independent experiments): 2 µM (≈ 1.17 µg/mL)
- MIC ([5]; Pseudomonas aeruginosa, P. auruginosa 27853, MH broth, ~1×10^5 CFU/ml, 37°C, 16–18 h, visible turbidity, at least three independent experiments): 1 µM (≈ 0.586 µg/mL)
- MIC ([6]; Pseudomonas aeruginosa, P. auruginosa 21625, MH broth, ~1×10^5 CFU/ml, 37°C, 16–18 h, visible turbidity, at least three independent experiments): 16 µM (≈ 9.37 µg/mL)
- MIC ([7]; Salmonella enterica, S. typhimurium 7731, MH broth, ~1×10^5 CFU/ml, 37°C, 16–18 h, visible turbidity, at least three independent experiments): 0.5 µM (≈ 0.293 µg/mL)
- MIC ([8]; Staphylococcus epidermidis, 12228): 0.125 µM (≈ 0.0732 µg/mL)
- MIC ([9]; Escherichia coli, 25922): 0.125 µM (≈ 0.0732 µg/mL)
- MIC ([10]; Pseudomonas aeruginosa): > 1280 µM
- MIC ([11]; Pseudomonas aeruginosa): 8 µM (≈ 4.68 µg/mL)
- MIC ([12]; Pseudomonas aeruginosa): 8 µM (≈ 4.68 µg/mL)

- MIC [1]; 29213: 128 µM (≈ 285 µg/mL)
- MIC [2]: 256 µM (≈ 571 µg/mL)
- MIC [3]: 64 µM (≈ 143 µg/mL)
- MIC [4]: 256 µM (≈ 571 µg/mL)
- MIC [5]; 27853: 256 µM (≈ 571 µg/mL)
- MIC [6]: 256 µM (≈ 571 µg/mL)
- MIC [7]; 7731: 128 µM (≈ 285 µg/mL)
- MIC [8]; 12228: 32 µM (≈ 71.3 µg/mL)
- MIC [9]; 25922: 64 µM (≈ 143 µg/mL)
- MIC [10]: 256 µM (≈ 571 µg/mL)
- MIC [11]: 256 µM (≈ 571 µg/mL)
- MIC [12]: 256 µM (≈ 571 µg/mL)
SMILES: CC[C@H](C)[C@H](NC(=O)[C@H](CCCCN)NC(=O)[C@H](CCCCN)NC(=O)[C@H](CC(C)C)NC(=O)[C@H](CCCNC(=N)N)NC(=O)[C@H](CCCCN)NC(=O)[C@H](CCCNC(=N)N)NC(=O)[C@H](Cc1ccccc1)NC(=O)[C@H](CCCCN)NC(=O)[C@H](CCCCN)NC(=O)[C@H](CCCNC(=N)N)NC(=O)[C@H](CC(C)C)NC(=O)[C@H](CCCNC(=N)N)NC(=O)[C@H](CCCNC(=N)N)NC(=O)[C@H](Cc1ccccc1)NC(=O)[C@@H](N)CCCNC(=N)N)C(N)=O [T9F] (H-RFRRLRKKFRKRLKKI-NH2)
